Laboratory results: patent US20040244713A1, “Method for treating animals or masses of water with compositions comprising quinone compounds” (priority 2003, published 2004)
Like-named read-outs stand apart in the source and are kept apart here.

Legend:
[1] = Photodegradability in sunlight and UV light; type: physicochemical; details: 10-ppm solution in drinking water (pH 6.5-7.5)
Procedure: In a fully similar manner, the same behaviour is confirmed if one assesses the photodegradability in sunlight and UV light (the radiation test was performed on a 10-ppm solution in drinking water (pH 6.5-7.5)

[2] = Hydrolysis test performed in darkness; type: physicochemical
[3] = OECD301 A guidelines, cited from earlier work
[4] = Feeding trial in rabbits in the fattening stage (growth, mortality); type: in vivo, New Zealand White rabbits; details: in feed: Bacitracin zinc 1.5 ppm, MSB 250 ppm; for Final number of animals / Final average weight / Mortality %: end of fattening cycle (53 days after weaning); for Final number of animals: 200 animals initially; for Average daily growth: fattening cycle of 53 days after weaning
Procedure: The effect of a preparation comprising menadione sodium bisulfite coated with saturated vegetable fatty acids on rabbits in the fattening stage is evaluated.
Composition of the preparation (per Kg of final preparation):
MSB coated with hydrogenated vegetable fatty acids (1:1 inclusion ratio) 250 g;
This preparation is added in the quantity of 1 Kg per ton of feed, so that the final concentration of MSB is equal to 125 ppm/Kg of finished food. Since rabbits are fed with 120-150 grams of feed/day, the concentration of MSB is equal to an average daily dose of approximately 15-20 mg of MSB/animal per day.
New Zealand White animals, weaned at 32 days, were grown with the preparation cited above and compared with animals of the same race, fed with the same basic feed but treated with bacitracin zinc in a quantity equal to 150 mg/100 Kg of feed and with animals lacking any drug integration.

[5] = Biodegradability OECD 301 A (92/69/EEC C4-A); type: physicochemical
Source text: The degradability of a substance is normally a factor that is impossible to predict on a structural basis. […] On the basis of the available data related to the compounds that are chemically more similar to the derivatives of menadione described here, one could have expected a degradability comprised between the 0% (percentage calculated on the initial mass of product expressed as mg/l) of menadione (2-methyl-1,4-naphthalenedione) and the 17% (assessed after 28 days) of menadione sodium bisulfite (where the calculation was performed by using the OECD301 A guidelines annexed to EEC directive 92/69/EEC C4-A).
Finally, biodegradability according to the 92/69/EEC C4-A regulation was also assessed.

Isochris Galbana = assay: Toxicity test LC50 on Isochris Galbana; type: cell-based
Source text: (§9) The table below lists the results of the toxicity tests performed on fish fauna and on some phyto- and zooplankton species considered among the possible targets of the claimed method.

Eurytemora Affinis [6] = assay: Toxicity test LC50 on Eurytemora Affinis; details: in vivo
Source text: as §9

Vibrio sp. CH45 = details: 24 hours in darkness, tested range 0.12-64 mg/l
Procedure: (§1) The MNB compound was tested in particular for its antibacterial activity on pathogenic and non-pathogenic organisms. The biocidal activity of MNB was estimated by using two separate methods: the agar diffusion test (Kirby-Bauer method) and the determination of the Minimum Inhibiting Concentration (MIC) and the Minimum Bactericidal Concentration (MBC).
(§2) b) Test for determining the MIC (minimum inhibiting concentration) and the MBC (minimum bactericidal concentration) of MNB with respect to pathogenic organisms after the colonies were kept in darkness for 24 hours. Tested concentration range: 0.12-64 mg/l. The tested strains were environmental isolates identified by means of an internal number or were standard strains identified by means of the ATCC or MNCIB filing number.

Vibrio sp. AE7 = details: 24 hours in darkness, tested range 0.12-64 mg/l
Procedure: as §1, §2

Vibrio sp. AD18 = details: 24 hours in darkness, tested range 0.12-64 mg/l
Procedure: as §1, §2

[7] = test system: Staphylococcus aureus ATCC 25923; assay: Agar diffusion test (Kirby-Bauer); type: cell-based; details: MNB (100 μg) per disk, 24 hours in darkness
Procedure: (§3) a) Kirby-Bauer test performed after 24 hours in darkness.
(§4) In this test, paper disks impregnated with known quantities of MNB are placed on the surface of agar disks injected at confluence with a standard suspension of a bacterial strain. The antibacterial agent diffuses on the plate, causing the formation of an area of inhibition of the growth of the bacterial strain around the disk with the inhibiting quantity of the agent. By virtue of a calibration curve it was possible to classify the isolates into susceptible, moderately resistant, and resistant.
(§5) The method being considered, therefore, assesses the effectiveness of a single quantity of agent ([…]) against two control strains of Gram-positive and Gram-negative aerobic bacteria (Gram-negative: Pseudomonas elongata NCIMB 1141; Gram-positive: Staphylococcus aureus ATCC 25923).
(§6) The results are given in the table and represent the size of the inhibition halos in millimetres after contact with 100 μg of MNB.

[8] = test system: Pseudomonas elongata NCIMB 1141; assay: Agar diffusion test (Kirby-Bauer); type: cell-based; details: MNB (100 μg) per disk, 24 hours in darkness
Procedure: as §3, §4, §5, §6

[9] = test system: Dreissena Polimorfa Larvae; assay: Toxicity test LC50 on Dreissena Polimorfa larvae; details: for LC50 Dreissena Polimorfa Larvae: in vivo
Source text: as §9

[10] = Procedure: As noted repeatedly, the water solubility of the biocidal candidate is an essential requirement for advantageous use in biological water control. Accordingly, this property was evaluated for four of the compounds that are representative of the chemical classes to which the biocides currently in use belong.
[11] = test system: Haemoncus contortus larvae (L3); assay: Faecal count of Haemoncus contortus larvae (L3); type: in vivo
Procedure: (§7) The effect of menadione nicotinamide bisulfite on Haemoncus contortus is assessed by measuring the motility of the larvae (L1), Table 2, and the faecal count of the larvae (L3), Table 2.1, according to the methodology described in Fetterer R. et Al. (1989) Vet. Parasitol. 32:181-189.

Rainbow trout = assay: Toxicity test LC50 on fish fauna, Rainbow trout; type: in vivo
Source text: as §9

Micrococcus sp. AE11 = assay: MIC and MBC determination; type: cell-based; details: 24 hours in darkness, tested range 0.12-64 mg/l
Procedure: (§8) Tested concentration range: 0.12-64 mg/l.

[12] = test system: Escherichia coli ATCC 25922; assay: MIC and MBC determination; type: cell-based; details: 24 hours in darkness, tested range 0.12-64 mg/l
Procedure: as §8

[13] = test system: Pseudomonas putida NCIMB 1960; assay: MIC and MBC determination; type: cell-based; details: 24 hours in darkness, tested range 0.12-64 mg/l
Procedure: as §8

[14] = test system: Vibrio parahaemolyticus AD19; assay: MIC and MBC determination; type: cell-based; details: 24 hours in darkness, tested range 0.12-64 mg/l
Procedure: as §8

Aeromonas sp. CH34 = assay: MIC and MBC determination; type: cell-based; details: 24 hours in darkness, tested range 0.12-64 mg/l
Procedure: as §8

[15] = test system: Bacillus licheniformis NCIMB 1525; assay: MIC and MBC determination; type: cell-based; details: 24 hours in darkness, tested range 0.12-64 mg/l
Procedure: as §8

[16] = test system: Staphylococcus aureus ATCC 25923; assay: MIC and MBC determination; type: cell-based; details: 24 hours in darkness, tested range 0.12-64 mg/l
Procedure: as §8

[17] = test system: Pseudomonas aeruginosa ATCC 10145; assay: MIC and MBC determination; type: cell-based; details: 24 hours in darkness, tested range 0.12-64 mg/l
Procedure: as §8

[18] = test system: Pseudomonas elongata NCIMB 1141; assay: MIC and MBC determination; type: cell-based; details: 24 hours in darkness, tested range 0.12-64 mg/l
Procedure: as §8

Bacillus subtilis = assay: MIC and MBC determination; type: cell-based; details: Bacillus subtilis ATCC 25923; 24 hours in darkness; tested range 0.12-64 mg/l
Procedure: as §8

Micrococcus sp. AD10 = assay: MIC and MBC determination; type: cell-based; details: 24 hours in darkness, tested range 0.12-64 mg/l
Procedure: as §8

Corynebacterium sp. CT15 = assay: MIC and MBC determination; type: cell-based; details: 24 hours in darkness, tested range 0.12-64 mg/l
Procedure: as §8

[19] = test system: Haemoncus contortus larvae (L1); assay: Motility of Haemoncus contortus larvae (L1); type: in vivo
Procedure: as §7

Artemia Salina = assay: Toxicity test LC50 on Artemia Salina; details: in vivo
Source text: as §9

Eurytemora Affinis [20] = details: in vivo
Source text: as §9

Compound: O=C1C=CC(=O)c2c(O)cccc21 [Juglone, 5-hydroxy-1,4-naphthalenedione, reference compound]
- Light exp. Total Degr. [1]: 48 h
- ½ LIFE, hydrolysis ([2]; PH 9, in darkness): 15 h

Compound: CC1(S(=O)(=O)[O-])CC(=O)c2ccccc2C1=O.[Na+] (stereo not drawn) [MSB, menadione sodium bisulfite]
- degradability (percentage calculated on the initial mass of product expressed as mg/l) ([3]; assessed after 28 days, available/reported data): 17%
- Final number of animals [4]: 191
- Final average weight [4]: 2.84 kilograms
- Mortality % [4]: 4.5%
- Average daily growth [4]: 38.1 grams
- % biodegr. OECD 301 A ([5]; after 7 days): 5%
- % biodegr. OECD 301 A ([5]; after 14 days): 10%

Compound: CC1(S(=O)(=O)O)CC(=O)c2ccccc2C1=O.NC(=O)c1cccnc1 (stereo not drawn) [MNB, menadione nicotinamide bisulfite]
- LC50 Isochris Galbana (Isochris Galbana): 0.5 ppm
- Light exp. Total Degr. [1]: 48 h
- Light exp. ½ life [1]: 10 h
- LC50 Eurytemora Affinis (Eurytemora Affinis [6]): 5 ppm
- MBC (Vibrio sp. CH45): 16 µg/mL
- MIC (Vibrio sp. CH45): 16 µg/mL
- MBC (Vibrio sp. AE7): 32 to 64 µg/mL
- MIC (Vibrio sp. AE7): 16 to 32 µg/mL
- MBC (Vibrio sp. AD18): 32 µg/mL
- MIC (Vibrio sp. AD18): 16 µg/mL
- size of the inhibition halos [7]: 20 mm
- size of the inhibition halos [8]: 20 mm
- LC50 Dreissena Polimorfa Larvae [9]: 1 ppm
- degradability compared with that of MSB [5]: as much as eight times higher
- % biodegr. OECD 301 A ([5]; after 7 days): 37%
- % biodegr. OECD 301 A ([5]; after 14 days): 37%
- % biodegr. OECD 301 A ([5]; after 28 days): 40%
- Sol. in H2O [10]: 19 gr/l
- Total no. of larvae (L3) ([11]; 1 μg of MNB/ml): 650
- Total no. of larvae (L3) ([11]; 10 μg of MNB/ml): 310
- Total no. of larvae (L3) ([11]; 100 μg of MNB/ml): 35
- ½ LIFE, hydrolysis ([2]; PH 6.8, in darkness): 48 h
- ½ LIFE, hydrolysis ([2]; PH 9, in darkness): <3 h
- LC50 Rainbow trout (assessed on 96 h) (Rainbow trout): 0.4 ppm
- MBC (Micrococcus sp. AE11): 16 µg/mL
- MIC (Micrococcus sp. AE11): 8 µg/mL
- MBC [12]: >64 µg/mL
- MIC [12]: >64 µg/mL
- MBC [13]: >64 µg/mL
- MIC [13]: >64 µg/mL
- MBC [14]: 4 µg/mL
- MIC [14]: 1 µg/mL
- MBC (Aeromonas sp. CH34): 64 µg/mL
- MIC (Aeromonas sp. CH34): 32 µg/mL
- MBC [15]: 32 µg/mL
- MIC [15]: 16 µg/mL
- MBC [16]: 16 µg/mL
- MIC [16]: 8 µg/mL
- MBC [17]: >64 µg/mL
- MIC [17]: >64 µg/mL
- MBC [18]: 16 µg/mL
- MIC [18]: 8 µg/mL
- MBC (Bacillus subtilis): 32 µg/mL
- MIC (Bacillus subtilis): 12 µg/mL
- MBC (Micrococcus sp. AD10): 32 µg/mL
- MIC (Micrococcus sp. AD10): 16 µg/mL
- MBC (Corynebacterium sp. CT15): 16 µg/mL
- MIC (Corynebacterium sp. CT15): 8 µg/mL
- % of motile larvae (L1) ([19]; 1 μg of MNB/ml): 70%
- % of motile larvae (L1) ([19]; 10 μg of MNB/ml): 43%
- % of motile larvae (L1) ([19]; 100 μg of MNB/ml): 3%
- LC50 Artemia Salina (Artemia Salina): 5 ppm

Compound: CC1=CC(=O)c2c(O)cccc2C1=O [2-methyl-5-hydroxy-1,4-naphthalenedione]
- LC50 Isochris Galbana (Isochris Galbana): 0.5 ppm
- LC50 Eurytemora Affinis (Eurytemora Affinis [6]): 5 ppm
- LC50 Dreissena Polimorfa Larvae [9]: 0.2 ppm
- LC50 Artemia Salina (Artemia Salina): 5 ppm

Compound: bacitracin zinc [reference compound]
- Final number of animals [4]: 185
- Final average weight [4]: 2.77 kilograms
- Mortality % [4]: 7.5%
- Average daily growth [4]: 36.8 grams

Compound: CC1=CC(=O)c2ccccc2C1=O [Menadione, 2-methyl-1,4-naphthalenedione, reference compound]
- LC50 Isochris Galbana (Isochris Galbana): 0.05 ppm
- degradability (percentage calculated on the initial mass of product expressed as mg/l) ([3]; available data, time not stated): 0%
- Light exp. Total Degr. [1]: >5000 h
- Light exp. ½ life [1]: 1500 h
- LC50 Eurytemora Affinis (Eurytemora Affinis [20]): 5 ppm
- LC50 on Dreissena Polimorfa relative to 2-methyl-5-hydroxy-1,4-naphthalenedione ([9]; 500 ppm vs 0.2 ppm): 2500 times
- LC50 Dreissena Polimorfa Larvae [9]: 500 ppm
- ½ LIFE, hydrolysis ([2]; PH 6.8, in darkness): 1500 h
- ½ LIFE, hydrolysis ([2]; PH 9, in darkness): 550 h
- LC50 Rainbow trout (assessed on 96 h) (Rainbow trout): 0.1 ppm
- LC50 Artemia Salina (Artemia Salina): 5 ppm

Compound: Cc1ccc2c(c1)C(=O)c1ccccc1C2=O [2-methyl-anthraquinone]
- LC50 Isochris Galbana (Isochris Galbana): 0.5 ppm
- LC50 Eurytemora Affinis (Eurytemora Affinis [20]): 5 ppm
- LC50 Dreissena Polimorfa Larvae [9]: 200 ppm
- LC50 Artemia Salina (Artemia Salina): 5 ppm
